Test results reported in the supplement of paper PMC8882468.
± gives the standard deviation of the averaged measurements.

Legend:
Assay in all cases: CTG-3D luminescence at 96 h relative to day-0 seeding control (ratio to day 0); higher = more growth / less cytotoxicity; PDxO 3D drug screen (set 2), 96 h, CTG-3D normalised to day-0 seeding control.
HCI-002 = tested on: HCI-002 (organoid from a triple-negative breast cancer xenograft)
HCI-011.E2 = tested on: HCI-011.E2 (organoid from an ER-positive breast cancer xenograft)
HCI-012 = tested on: HCI-012 (organoid from a breast cancer xenograft)
HCI-017.E2 = tested on: HCI-017.E2 (organoid from an ER-positive breast cancer xenograft)
HCI-019 = tested on: HCI-019 (organoid from a triple-negative breast cancer xenograft)
HCI-023 = tested on: HCI-023 (organoid from a triple-negative breast cancer xenograft)

Cc1c(CN2CCN(C(=O)[C@H](C)O)CC2)sc2c(N3CCOCC3)nc(-c3cnc(N)nc3)nc12 [apitolisib]
CTG-3D luminescence at 96 h
Conditions	12.5 pM	0.00025 µM	0.005 µM	0.1 µM	1 µM	10 µM	100 µM	625 fM
HCI-002, days in culture: 127	2.45	2.82	2.96	2.58	1.05	0.803	0.805	2.74
HCI-002, days in culture: 155	5.36	5.25	5.97	4.01	1.36	0.808	0.848	4.72
HCI-002, days in culture: 168	3.42	3.42	4.23	2.67	1.16	0.818	0.75	3.69
HCI-011.E2, days in culture: 74	2.37	2.08	1.85	1.24	0.177	0.0892	0.218	2.23
HCI-012, days in culture: 214	3.46	3.38	1.52	1.74	0.672	0.176	0.0363	3.26
HCI-012, days in culture: 243	2.34	2.6	2.13	1.48	0.554	0.118	0.0299	2.51
HCI-012, days in culture: 256	2.08	2.2	2.08	2.67	0.805	0.1	0.0191	2.05
HCI-012, days in culture: 284	2.16	2.93	1.47	1.97	0.681	0.102	0.0089	3.29
HCI-017.E2, days in culture: 85	2.14	1.73	1.52	1.36	0.359	0.278	0.161	2.09
HCI-019, days in culture: 173	2.46	1.25	0.933	2.29	0.88	0.36	0.336	1.93
HCI-019, days in culture: 194	1.95	1.96	2.18	0.828	0.744	0.462	0.305	1.85
HCI-019, days in culture: 215	0.992	1.33	1.51	0.699	0.362	0.15	0.168	1.4
HCI-023, days in culture: 223	2.19	2.65	1.81	1.85	0.861	0.971	0.469	2.04
HCI-023, days in culture: 238	1.77	1.62	1.45	1.58	1.5	0.763	0.38	1.65
HCI-023, days in culture: 252	1.95	1.92	1.7	2.06	1.62	0.654	0.459	1.97

CTG-3D luminescence at 96 h
Conditions	12.5 pM	0.00025 µM	0.005 µM	0.1 µM	1 µM	10 µM	100 µM	625 fM
HCI-011.E2	1.62 ± 0.14	1.71 ± 0.093	1.3004 ± 0.00091	0.978 ± 0.23	0.232 ± 0.11	0.17 ± 0.029	0.377 ± 0.0061	1.89 ± 0.15
HCI-017.E2	2.28 ± 0.3	2.54 ± 0.27	2.21 ± 0.025	1.43 ± 0.29	0.397 ± 0.021	0.399 ± 0.008	0.223 ± 0.028	2.43 ± 0.34

Nc1cc(C(F)(F)F)c(-c2cc(N3CCOCC3)nc(N3CCOCC3)n2)cn1 [buparlisib]
CTG-3D luminescence at 96 h
Conditions	12.5 pM	0.00025 µM	0.005 µM	0.1 µM	1 µM	10 µM	100 µM	625 fM
HCI-002, days in culture: 127	2.59	2.87	2.94	3.16	2.14	0.496	0.461	2.98
HCI-002, days in culture: 155	5.8	5.75	6.05	5.13	3.11	0.466	0.411	4.41
HCI-002, days in culture: 168	3.25	3.53	3.92	2.96	2.25	0.309	0.241	4.04
HCI-011.E2, days in culture: 74	2.23	1.9	1.83	2.23	0.711	0.135	0.0559	2.32
HCI-012, days in culture: 214	1.75	3.34	1.48	2.51	1.02	0.314	0.0491	2.11
HCI-012, days in culture: 243	1.8	2.97	2.35	2.4	1.59	0.242	0.0324	2.37
HCI-012, days in culture: 256	2.19	2.45	2.12	2.99	1.05	0.138	0.0266	1.97
HCI-012, days in culture: 284	1.86	2.37	1.96	2.4	1.3	0.282	0.0339	3.54
HCI-017.E2, days in culture: 85	2.1	1.79	1.67	1.9	0.668	0.194	0.256	2.53
HCI-019, days in culture: 173	2.34	1.59	2.11	1.58	1.45	0.425	0.353	1.61
HCI-019, days in culture: 194	1.92	1.72	2.05	2.27	0.78	0.454	0.358	3.95
HCI-019, days in culture: 215	1.75	1.27	1.46	1.85	0.763	0.382	0.188	1.2
HCI-023, days in culture: 223	2.1	2.58	1.97	2.26	0.929	0.895	1.04	2.64
HCI-023, days in culture: 238	1.41	1.77	1.57	1.4	1.23	0.672	0.628	1.46
HCI-023, days in culture: 252	2.06	2.07	1.65	2.23	1.58	0.8	0.794	2.06

CTG-3D luminescence at 96 h
Conditions	12.5 pM	0.00025 µM	0.005 µM	0.1 µM	1 µM	10 µM	100 µM	625 fM
HCI-011.E2	1.59 ± 0.17	1.75 ± 0.2	1.23 ± 0.11	1.38 ± 0.12	0.772 ± 0.013	0.191 ± 0.037	0.0881 ± 0.021	2.09 ± 0.41
HCI-017.E2	1.864 ± 0.0089	2.59 ± 0.59	2.12 ± 0.061	2.15 ± 0.59	0.869 ± 0.2	0.263 ± 0.024	0.208 ± 0.047	2.26 ± 0.043
